Results as given in PubChem BioAssay (NCI).
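Five concentrations, 48 hours, 96-well plates. GI50: concentration for 50% inhibition of growth. TGI: concentration producing complete growth inhibition.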

How the values were obtained:
Assay in all cases: DTP human tumour cell line panel, 48 h
COLO 205 colon = tested on: COLO 205 colon
MALME-3M melanoma = tested on: MALME-3M melanoma
CAKI-1 renal = tested on: CAKI-1 renal
DU-145 prostate = tested on: DU-145 prostate
HCC-2998 colon = tested on: HCC-2998 colon
LOX IMVI melanoma = tested on: LOX IMVI melanoma
UACC-62 melanoma = tested on: UACC-62 melanoma
OVCAR-4 ovarian = tested on: OVCAR-4 ovarian
NCI-H23 lung = tested on: NCI-H23 lung
OVCAR-3 ovarian = tested on: OVCAR-3 ovarian
A549 NSCLC = tested on: A549 NSCLC
SW-620 colon = tested on: SW-620 colon
786-0 renal = tested on: 786-0 renal
K-562 leukemia = tested on: K-562 leukemia
ACHN renal = tested on: ACHN renal
SK-MEL-2 melanoma = tested on: SK-MEL-2 melanoma
SK-OV-3 ovarian = tested on: SK-OV-3 ovarian
MDA-MB-435 = tested on: MDA-MB-435
HOP-62 NSCLC = tested on: HOP-62 NSCLC
CCRF-CEM leukemia = tested on: CCRF-CEM leukemia
HS 578T breast = tested on: HS 578T breast
TK-10 renal = tested on: TK-10 renal
NCI/ADR-RES ovarian = tested on: NCI/ADR-RES ovarian
UO-31 renal = tested on: UO-31 renal
SF-268 CNS = tested on: SF-268 CNS
NCI-H226 lung = tested on: NCI-H226 lung
KM12 colon = tested on: KM12 colon
M14 melanoma = tested on: M14 melanoma
MCF7 breast = tested on: MCF7 breast
SK-MEL-28 melanoma = tested on: SK-MEL-28 melanoma
SF-539 CNS = tested on: SF-539 CNS
HCT-116 colon = tested on: HCT-116 colon
A498 renal = tested on: A498 renal
OVCAR-8 ovarian = tested on: OVCAR-8 ovarian
UACC-257 melanoma = tested on: UACC-257 melanoma
SNB-75 CNS = tested on: SNB-75 CNS
SN12C renal = tested on: SN12C renal
HCT-15 colon = tested on: HCT-15 colon
SK-MEL-5 melanoma = tested on: SK-MEL-5 melanoma
HT29 colon = tested on: HT29 colon
IGROV1 ovarian = tested on: IGROV1 ovarian
SF-295 CNS = tested on: SF-295 CNS
T-47D breast = tested on: T-47D breast
SNB-19 CNS = tested on: SNB-19 CNS
PC-3 prostate = tested on: PC-3 prostate
MOLT-4 leukemia = tested on: MOLT-4 leukemia
OVCAR-5 ovarian = tested on: OVCAR-5 ovarian
MDA-MB-231 breast = tested on: MDA-MB-231 breast
U251 CNS = tested on: U251 CNS
EKVX NSCLC = tested on: EKVX NSCLC
BT-549 breast = tested on: BT-549 breast
RXF 393 renal = tested on: RXF 393 renal
NCI-H460 lung = tested on: NCI-H460 lung
SR leukemia = tested on: SR leukemia
HL-60(TB) leukemia = tested on: HL-60(TB) leukemia
RPMI-8226 leukemia = tested on: RPMI-8226 leukemia
HOP-92 NSCLC = tested on: HOP-92 NSCLC
NCI-H522 lung = tested on: NCI-H522 lung

Structure (SMILES): COC1=C(OC)C(=O)C(Sc2ccc3ccccc3c2)=CC1=O
- TGI (COLO 205 colon): 23.7 µM
- TGI (MALME-3M melanoma): 28.4 µM
- TGI (CAKI-1 renal): 32.8 µM
- TGI (DU-145 prostate): 33.7 µM
- TGI (HCC-2998 colon): 26.1 µM
- TGI (LOX IMVI melanoma): 30.6 µM
- TGI (UACC-62 melanoma): 20.5 µM
- TGI (OVCAR-4 ovarian): 48.5 µM
- TGI (NCI-H23 lung): 33.1 µM
- TGI (OVCAR-3 ovarian): 32.7 µM
- TGI (A549 NSCLC): 32.3 µM
- TGI (SW-620 colon): > 61 µM
- TGI (786-0 renal): 16.3 µM
- TGI (K-562 leukemia): 10.3 µM
- TGI (ACHN renal): 23.6 µM
- TGI (SK-MEL-2 melanoma): 31.4 µM
- TGI (SK-OV-3 ovarian): 31.7 µM
- TGI (MDA-MB-435): 29.8 µM
- TGI (HOP-62 NSCLC): 32.7 µM
- TGI (CCRF-CEM leukemia): 4.31 µM
- TGI (HS 578T breast): 53.4 µM
- TGI (TK-10 renal): 27 µM
- TGI (NCI/ADR-RES ovarian): 69.6 µM
- TGI (UO-31 renal): 16.3 µM
- TGI (SF-268 CNS): 36.3 µM
- TGI (NCI-H226 lung): 27.2 µM
- TGI (KM12 colon): 21.2 µM
- TGI (M14 melanoma): 21.8 µM
- TGI (MCF7 breast): 43.9 µM
- TGI (SK-MEL-28 melanoma): 41.5 µM
- TGI (SF-539 CNS): > 57.7 µM
- TGI (HCT-116 colon): 25.9 µM
- TGI (A498 renal): 29.6 µM
- TGI (OVCAR-8 ovarian): 82.4 µM
- TGI (UACC-257 melanoma): 22.2 µM
- TGI (SNB-75 CNS): 29.8 µM
- TGI (SN12C renal): 26.5 µM
- TGI (HCT-15 colon): 44.7 µM
- TGI (SK-MEL-5 melanoma): 13.9 µM
- TGI (HT29 colon): 37.8 µM
- TGI (IGROV1 ovarian): 39 µM
- TGI (SF-295 CNS): 23.8 µM
- TGI (T-47D breast): 35.8 µM
- TGI (SNB-19 CNS): 32.4 µM
- TGI (PC-3 prostate): 26.1 µM
- TGI (MOLT-4 leukemia): 4.86 µM
- TGI (OVCAR-5 ovarian): 37.2 µM
- TGI (MDA-MB-231 breast): 32.9 µM
- TGI (U251 CNS): 21.4 µM
- TGI (EKVX NSCLC): 30.5 µM
- TGI (BT-549 breast): 22.5 µM
- TGI (RXF 393 renal): 22.1 µM
- TGI (NCI-H460 lung): 43.4 µM
- TGI (SR leukemia): 7.95 µM
- TGI (HL-60(TB) leukemia): 3.35 µM
- TGI (RPMI-8226 leukemia): 5.78 µM
- TGI (HOP-92 NSCLC): 45.6 µM

Structure (SMILES): Cc1c(-c2ccc(O)cc2)oc(=O)c2ccc(O)cc12
- GI50 (COLO 205 colon): > 100 µM
- TGI (COLO 205 colon): > 100 µM
- GI50 (MALME-3M melanoma): 32.7 µM
- TGI (MALME-3M melanoma): > 100 µM
- GI50 (CAKI-1 renal): 22.4 µM
- TGI (CAKI-1 renal): > 100 µM
- GI50 (DU-145 prostate): 75.8 µM
- TGI (DU-145 prostate): > 100 µM
- GI50 (HCC-2998 colon): 36.9 µM
- TGI (HCC-2998 colon): > 100 µM
- GI50 (NCI-H522 lung): 87.6 µM
- TGI (NCI-H522 lung): > 100 µM
- GI50 (LOX IMVI melanoma): > 100 µM
- TGI (LOX IMVI melanoma): > 100 µM
- GI50 (UACC-62 melanoma): 35.2 µM
- TGI (UACC-62 melanoma): > 100 µM
- GI50 (OVCAR-4 ovarian): > 100 µM
- TGI (OVCAR-4 ovarian): > 100 µM
- GI50 (OVCAR-3 ovarian): 51.5 µM
- TGI (OVCAR-3 ovarian): > 100 µM
- GI50 (A549 NSCLC): 47.6 µM
- TGI (A549 NSCLC): > 100 µM
- GI50 (SW-620 colon): 55.4 µM
- TGI (SW-620 colon): > 100 µM
- GI50 (786-0 renal): 50.7 µM
- TGI (786-0 renal): > 100 µM
- GI50 (K-562 leukemia): 38.5 µM
- TGI (K-562 leukemia): > 100 µM
- GI50 (ACHN renal): > 100 µM
- TGI (ACHN renal): > 100 µM
- GI50 (SK-MEL-2 melanoma): > 100 µM
- TGI (SK-MEL-2 melanoma): > 100 µM
- GI50 (SK-OV-3 ovarian): > 100 µM
- TGI (SK-OV-3 ovarian): > 100 µM
- GI50 (MDA-MB-435): 15.4 µM
- TGI (MDA-MB-435): 85.2 µM
- GI50 (HOP-62 NSCLC): 41 µM
- TGI (HOP-62 NSCLC): > 100 µM
- GI50 (CCRF-CEM leukemia): 32.6 µM
- TGI (CCRF-CEM leukemia): > 100 µM
- GI50 (HS 578T breast): 43.5 µM
- TGI (HS 578T breast): > 100 µM
- GI50 (TK-10 renal): 27.4 µM
- TGI (TK-10 renal): > 100 µM
- GI50 (NCI/ADR-RES ovarian): 49.7 µM
- TGI (NCI/ADR-RES ovarian): > 100 µM
- GI50 (UO-31 renal): 69.9 µM
- TGI (UO-31 renal): > 100 µM
- GI50 (SF-268 CNS): 55.4 µM
- TGI (SF-268 CNS): > 100 µM
- GI50 (NCI-H226 lung): > 100 µM
- TGI (NCI-H226 lung): > 100 µM
- GI50 (KM12 colon): 60.9 µM
- TGI (KM12 colon): > 100 µM
- GI50 (M14 melanoma): 40.3 µM
- TGI (M14 melanoma): > 100 µM
- GI50 (MCF7 breast): 66.3 µM
- TGI (MCF7 breast): > 100 µM
- GI50 (SK-MEL-28 melanoma): 60 µM
- TGI (SK-MEL-28 melanoma): > 100 µM
- GI50 (SF-539 CNS): 36.7 µM
- TGI (SF-539 CNS): > 100 µM
- GI50 (HCT-116 colon): 38 µM
- TGI (HCT-116 colon): > 100 µM
- GI50 (A498 renal): 42.8 µM
- TGI (A498 renal): 98.1 µM
- GI50 (OVCAR-8 ovarian): 83.8 µM
- TGI (OVCAR-8 ovarian): > 100 µM
- GI50 (UACC-257 melanoma): 63.2 µM
- TGI (UACC-257 melanoma): > 100 µM
- GI50 (SN12C renal): 66.6 µM
- TGI (SN12C renal): > 100 µM
- GI50 (HCT-15 colon): 89.8 µM
- TGI (HCT-15 colon): > 100 µM
- GI50 (SK-MEL-5 melanoma): 33.3 µM
- TGI (SK-MEL-5 melanoma): > 100 µM
- GI50 (HT29 colon): 73.3 µM
- TGI (HT29 colon): > 100 µM
- GI50 (IGROV1 ovarian): 35.7 µM
- TGI (IGROV1 ovarian): > 100 µM
- GI50 (SF-295 CNS): 32.8 µM
- TGI (SF-295 CNS): > 100 µM
- GI50 (T-47D breast): > 100 µM
- TGI (T-47D breast): > 100 µM
- GI50 (SNB-19 CNS): > 100 µM
- TGI (SNB-19 CNS): > 100 µM
- GI50 (PC-3 prostate): 56.4 µM
- TGI (PC-3 prostate): > 100 µM
- GI50 (MOLT-4 leukemia): 73.7 µM
- TGI (MOLT-4 leukemia): > 100 µM
- GI50 (OVCAR-5 ovarian): > 100 µM
- TGI (OVCAR-5 ovarian): > 100 µM
- GI50 (MDA-MB-231 breast): > 100 µM
- TGI (MDA-MB-231 breast): > 100 µM
- GI50 (U251 CNS): 63.8 µM
- TGI (U251 CNS): > 100 µM
- GI50 (EKVX NSCLC): 54.6 µM
- TGI (EKVX NSCLC): > 100 µM
- GI50 (BT-549 breast): 35.6 µM
- TGI (BT-549 breast): > 100 µM
- GI50 (RXF 393 renal): > 100 µM
- TGI (RXF 393 renal): > 100 µM
- GI50 (NCI-H460 lung): 45.3 µM
- TGI (NCI-H460 lung): > 100 µM
- GI50 (SR leukemia): 41.6 µM
- TGI (SR leukemia): > 100 µM
- GI50 (RPMI-8226 leukemia): 31 µM
- TGI (RPMI-8226 leukemia): > 100 µM
- GI50 (HOP-92 NSCLC): > 100 µM
- TGI (HOP-92 NSCLC): > 100 µM
